Results as given in US20220289794A1, “SYNTHETIC ANTIMICROBIAL PEPTIDES” (priority 2019, published 2022).
Values after ≈ are worked out from the molar mass of the structure shown. Read-outs that look alike come from different tables or passages of the source. Non-standard residues stand in square brackets, D forms with d. Residues, ends and D or L forms follow the SMILES beside them. Dip = N[C@H](C(=O)O)C(c1ccccc1)c1ccccc1; 2Nal = N[C@@H](Cc1ccc2ccccc2c1)C(=O)O; d2Nal = N[C@H](Cc1ccc2ccccc2c1)C(=O)O

Key:
[1] = system: E. coli (ATCC BAA-2452); test: Broad-spectrum activity against Gram-Negative bacteria (MIC); type: cell-based; conditions: Table 16, Gram-negative panel
[2] = system: Klebsiella pneumoniae ATCC 13883; conditions: Table 16, Gram-negative panel
[3] = system: Streptococcus pneumoniae ATCC 49619; conditions: S. pneumoniae ATCC 49619
[4] = system: Streptococcus pneumoniae ATCC 51938; conditions: S. pneumoniae ATCC 51938
[5] = system: Enterococcus faecalis ATCC 51575; conditions: E. faecalis ATCC 51575
[6] = system: Klebsiella pneumoniae (ATCC BAA-1705); conditions: Table 16, Gram-negative panel
[7] = system: A. baumannii (ATCC BAA-1605); test: Broad-spectrum activity against Gram-Negative bacteria (MIC); type: cell-based; conditions: Table 16, Gram-negative panel
[8] = system: Pseudomonas aeruginosa (ATCC 27883)
[9] = system: P. aeruginosa (ATCC BAA-1744); test: Broad-spectrum activity against Gram-Negative bacteria (MIC); type: cell-based; conditions: Table 16, Gram-negative panel
[10] = system: Enterococcus faecalis ATCC 29212; conditions: E. faecalis ATCC 29212
[11] = system: Methicillin-resistant Staphylococcus aureus MRSA (ATCC BAA-1556)
[12] = system: Enterococcus faecium ATCC 27270; conditions: E. faecium ATCC 27270
[13] = system: S. aureus ATCC 29213
[14] = system: Escherichia coli (ATCC 25922)
[15] = system: Enterococcus faecium ATCC 700221; conditions: E. faecium ATCC 700221
[16] = system: B. subtilis (ATCC-6633); test: Broad-spectrum activity against Gram-Positive bacteria (MIC); type: cell-based; parameters: unit not given here
[17] = system: B. cereus (ATCC-13061); test: as above; type: cell-based; parameters: unit not given here
[18] = system: P. aeruginosa (ATCC 10145); test: Broad-spectrum activity against Gram-Negative bacteria (MIC); type: cell-based; conditions: Table 16, Gram-negative panel
[19] = system: human red blood cells; parameters: unit not given beside the values
[20] = in vitro; conditions: human, fresh human red blood cells (washed), pH 7.4

Row | Molecule | MIC E. coli (ATCC BAA-2452) [1] [µg/mL] | MIC K. pneumonia (ATCC 13883) [2] [µg/mL] | Broad-spectrum activity S. pneumoniae (ATCC 49619) [3] | Broad-spectrum activity S. pneumoniae (ATCC 51938) [4] | Broad-spectrum activity E. faecalis (ATCC 51575) [5] | MIC K. pneumonia (ATCC BAA-1705) [6] [µg/mL] | MIC A. baumannii (ATCC BAA-1605) [7] [µg/mL] | MIC P. aeruginosa ATCC 27883 ([8]; P. aeruginosa ATCC 27883) [µg/mL] | MIC P. aeruginosa (ATCC BAA-1744) [9] [µg/mL] | Broad-spectrum activity E. faecalis (ATCC 29212) [10] | MIC MRSA ATCC BAA-1556 ([11]; MRSA ATCC BAA-1556) [µg/mL] | Broad-spectrum activity E. faecium (ATCC 27270) [12] | MIC S. aureus ATCC 29213 ([13]; S. aureus ATCC 29213) [µg/mL] | MIC E. coli ATCC 25922 ([14]; E. coli ATCC 25922) [µg/mL] | Broad-spectrum activity E. faecium (ATCC 700221) [15] | Broad-spectrum activity B. subtilis (ATCC-6633) [16] | Broad-spectrum activity B. cereus (ATCC-13061) [17] | MIC P. aeruginosa (ATCC 10145) [18] [µg/mL] | MIC MRSA ATCC BAA-1556 ([11]; ATCC BAA-1556) [µg/mL] | MIC S. aureus ATCC 29213 ([13]; ATCC 29213) [µg/mL] | further results
1 | c[Arg-arg-Arg-Arg-Dip-Dip-Dip] [IFX-065] | 6.2 | 50 | 25 | 12.5 | 12.5 | 12.5 | 6.2 | 12.5 | 12.5 | 6.2 | 1.5 | 3.1 | 3.1 | 12.5 | 3.1 | 1.5 | 3.1 | 12.5 | – | – | –
2 | c[Arg-Arg-arg-Arg-Dip-Trp-Dip] [IFX-092] | 12.5 | 50 | 50 | 25 | 12.5 | 25 | 12.5 | 12.5 | 25 | 12.5 | 3.1 | 6.2 | 3.1 | 25 | 12.5 | 1.5 | 6.2 | 25 | – | – | –
3 | c[Arg-Arg-Arg-Arg-Dip-Dip-dip] [IFX-060] | 12.5 | 50 | 25 | 12.5 | 12.5 | 12.5 | 6.2 | 12.5 | 12.5 | 3.1 | 1.5 | 3.1 | 1.5 | 6.2 | 1.5 | 1.5 | 3.1 | 25 | – | – | –
4 | c[arg-arg-arg-arg-dip-Trp-dip] [IFX-095] | 25 | 50 | 50 | 12.5 | 12.5 | 12.5 | 12.5 | 12.5 | 25 | 6.2 | 3.1 | 3.1 | 3.1 | 12.5 | 6.2 | 1.5 | 3.1 | 25 | – | – | –
5 | N=C(N)NCCC[C@@H]1NC(=O)[C@H](CCCNC(=N)N)NC(=O)[C@H](C(c2ccccc2)c2ccccc2)NC(=O)[C@H](C(c2ccccc2)c2ccccc2)NC(=O)[C@H](CCCNC(=N)N)NC(=O)[C@H](CCCNC(=N)N)NC(=O)[C@H](C(c2ccccc2)c2ccccc2)NC1=O [IFX-017, c[Arg-Arg-Dip-Dip-Arg-Arg-Dip]] (cyclo(R[Dip]RR[Dip][Dip]R)) | 12.5 (≈ 9.66 µM) | 50 (≈ 38.6 µM) | 50 | 12.5 | – | 25 (≈ 19.3 µM) | 12.5 (≈ 9.66 µM) | – | 25 (≈ 19.3 µM) | 12.5 | – | 3.1 | – | – | 1.5 | 1.5 | 6.2 | 25 (≈ 19.3 µM) | 12.5 (≈ 9.66 µM) | 6.2 (≈ 4.79 µM) | HC50 [19]: 290; MIC P. aeruginosa ATCC 27883 ([8]; ATCC 27883): >100 µg/mL; MIC E. coli ATCC 25922 ([14]; ATCC 25922): >100 µg/mL
6 | c[Arg-Arg-arg-arg-NaI-trp-NaI] [IFX-139] | 25 | > 50 | 25 | 12.5 | 6.2 | 25 | 12.5 | 32 | 50 | 6.2 | 3.1 | 3.1 | 3.1 | 32 | 6.2 | 1.5 | 3.1 | 50 | – | – | –
7 | c[arg-Arg-Arg-Arg-Dip-Dip-Dip] [IFX-066] | 12.5 | 50 | 25 | 12.5 | 12.5 | 12.5 | 6.2 | 12.5 | 12.5 | 6.2 | 1.5 | 3.1 | 3.1 | 12.5 | 3.1 | 1.5 | 6.2 | 25 | – | – | –
8 | NCCCC[C@@H]1NC(=O)[C@H](CCCCN)NC(=O)[C@H](CCCCN)NC(=O)[C@H](Cc2ccc3ccccc3c2)NC(=O)[C@H](Cc2ccc3ccccc3c2)NC(=O)[C@H](Cc2c[nH]c3ccccc23)NC(=O)[C@H](CCCCN)NC1=O [IFX-126, c[Lys-Lys-Lys-Lys-Trp-NaI-NaI]] (cyclo([2Nal][2Nal]KKKKW)) | – | – | – | – | – | – | – | – | – | – | – | – | – | – | – | – | – | – | 12.5 (≈ 11.4 µM) | 12.5 (≈ 11.4 µM) | MIC P. aeruginosa ATCC 27883 ([8]; ATCC 27883): 128 µg/mL (≈ 117 µM); MIC E. coli ATCC 25922 ([14]; ATCC 25922): 64 µg/mL (≈ 58.5 µM); HC50 at 0.5 h [20]: 610 µg/mL
9 | N=C(N)NCCC[C@@H](N)C(=O)N[C@H](CCCNC(=N)N)C(=O)N[C@H](CCCNC(=N)N)C(=O)N[C@H](CCCNC(=N)N)C(=O)N[C@H](C(=O)N[C@H](C(=O)N[C@H](C(=O)O)C(c1ccccc1)c1ccccc1)C(c1ccccc1)c1ccccc1)C(c1ccccc1)c1ccccc1 [IFX-073-1] (H-[dR][dR][dR][dR][Dip][Dip][Dip]-OH) | – | – | – | – | – | – | – | – | – | – | – | – | – | – | – | – | – | – | 6.2 (≈ 4.72 µM) | 3.1 (≈ 2.36 µM) | MIC P. aeruginosa ATCC 27883 ([8]; ATCC 27883): 12.5 µg/mL (≈ 9.52 µM); MIC E. coli ATCC 25922 ([14]; ATCC 25922): 6.2 µg/mL (≈ 4.72 µM); HC50 at 0.5 h [20]: 410 µg/mL
10 | N=C(N)NCCC[C@@H]1NC(=O)[C@H](CCCNC(=N)N)NC(=O)[C@@H](Cc2ccc3ccccc3c2)NC(=O)[C@@H](Cc2ccc3ccccc3c2)NC(=O)[C@H](Cc2c[nH]c3ccccc23)NC(=O)[C@@H](CCCNC(=N)N)NC(=O)[C@@H](CCCNC(=N)N)NC(=O)[C@H](CCCNC(=N)N)NC1=O [IFX-125, c[Arg-Arg-Arg-arg-arg-Trp-naI-naI]] (cyclo(RRR[dR][dR]W[d2Nal][d2Nal])) | – | – | – | – | – | – | – | – | – | – | – | – | – | – | – | – | – | – | 3.1 (≈ 2.28 µM) | 3.1 (≈ 2.28 µM) | MIC P. aeruginosa ATCC 27883 ([8]; ATCC 27883): 32 µg/mL (≈ 23.5 µM); MIC E. coli ATCC 25922 ([14]; ATCC 25922): 16 µg/mL (≈ 11.8 µM); HC50 at 0.5 h [20]: 485 µg/mL
11 | N=C(N)NCCC[C@H]1NC(=O)[C@H](Cc2ccc3ccccc3c2)NC(=O)[C@H](Cc2ccc3ccccc3c2)NC(=O)[C@H](Cc2c[nH]c3ccccc23)NC(=O)[C@@H](CCCNC(=N)N)NC(=O)[C@@H](CCCNC(=N)N)NC(=O)[C@@H](CCCNC(=N)N)NC1=O [IFX-113, c[arg-arg-arg-arg-Trp-NaI-NaI]] (cyclo([dR][dR][dR][dR]W[2Nal][2Nal])) | – | – | – | – | – | – | – | 12.5 (≈ 10.4 µM) | – | – | – | – | – | – | – | – | – | – | 1.5 (≈ 1.24 µM) | 3.1 (≈ 2.57 µM) | MIC E. coli ATCC 25922 ([14]; ATCC 25922): 12.5 µg/mL (≈ 10.4 µM); HC50 at 0.5 h [20]: 365 µg/mL
